From PubChem BioAssay (NCI) come the findings set out here.

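Tested at 5 concentrations; 48 h exposure; 96-well plates; endpoints linearly interpolated, else capped at highest concentration. The concentration for 50% growth inhibition is given as GI50. TGI marks complete inhibition of growth.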 Bounds are passed on as bounds.

One assay deals with MALME-3M melanoma. Kind of assay: growth of human tumour cells (NCI), 48 h.
Consider `O=C1OC(O)[C@@H]2[C@H]1[C@H]1CC[C@@H]2O1` (stereo partly drawn), for which the GI50 was 28.1 µM and the TGI came to 77.3 µM.

Regarding `O=C1c2cc3c(cc2-c2c1c1ccc(F)cc1c(=O)n2CCCNCCO)OCO3`, the GI50 was 0.102 µM and the TGI was determined as 0.729 µM.

`COC(=O)C1=C(C)NC(C)=C(C(=O)OCCCN2CCC(c3ccccc3)(c3ccccc3)CC2)C1c1cccc([N+](=O)[O-])c1` (stereo not drawn) yielded a TGI of 3.66 µM.

For `CCCCCCCCC/C=C1\CCC(CN2CCOCC2)C1=O` (stereo not drawn), the TGI amounted to 19 µM.

Molecule `N=Nc1c(OC(=O)Nc2cccc(Cl)c2)[nH]c2ccccc12` gave a TGI of 26.5 µM.

In the case of `CC1(C)C2CCC(=O)C1CC2` (stereo not drawn), the TGI is more than 100 µM.

With `Fc1cc2[nH]ncc2c2c3c(c(-c4cn[nH]c4)nc12)CCCC3`, the GI50 was 0.953 µM and the TGI was 3.16 µM.

With `C=C1C(=O)O[C@H]2[C@H]1CC/C(COC(=O)c1c[nH]c3ccccc13)=C\CC[C@@]1(C)O[C@@H]21`, the GI50 is 0.324 µM and the TGI worked out at 1.27 µM.

In the case of `C/C(=N\NC(=S)NC(CCC(=O)O)C(=O)O)c1ccccn1` (stereo not drawn), the TGI is more than 100 µM.

With `CCN1CCN(c2nc(C)cc(N(CCNc3ccnc4cc(Cl)ccc34)Cc3ccc4c(c3)OCO4)n2)CC1`, the GI50 was 1.84 µM and the TGI turned out to be 3.44 µM.

Take `CCN(CC)c1ccc(-c2cc(-c3cc(OC)c(OC)c(OC)c3)nc(N3CCOCC3)c2C#N)cc1`: the GI50 was 2.28 µM and the TGI was more than 29.9 µM.

`C=C(Br)C(C)(Br)CCC(Br)C(C)(C)Cl` (stereo not drawn) showed a TGI of 39.3 µM.

Take `O=C(CCc1nnc2sc(-c3ccc(Cl)cc3Cl)nn12)c1nc2ncccc2[nH]1`: the GI50 is 1.85 µM and the TGI was found to be 4.1 µM.

As to `NS(=O)(=O)c1cc(Br)c(N=Nc2ccc(O)c3ncccc23)c(Br)c1`, the TGI amounted to 79.6 µM.

For `COc1ccc(-c2nnc(COc3ccc(C(=O)/C=C/c4ccco4)cc3)o2)cc1`, the GI50 was 2.82 µM and the TGI is 7.43 µM.

`OCc1ccc(-c2ccc(-c3ccc(CO)s3)o2)s1` returned a TGI of more than 88.8 µM.

In turn, `Cc1ccccc1S(=O)(=O)OC1NS(=O)(=O)c2ccccc21` (stereo not drawn) returned a TGI of more than 100 µM.

Take `O=C(/C=C/c1ccncc1)c1cc(Cl)ccc1O`: the GI50 is 19.7 µM and the TGI amounted to 45.5 µM.

Turning to `Cc1cc(/C=C/c2ccc3cc(N(C)C)ccc3[n+]2C)c(C)n1-c1ccccc1`, the GI50 was 0.42 µM and the TGI worked out at 1.46 µM.

The test system of a further assay is SK-MEL-28 melanoma. The assay can be described thus: growth of human tumour cells (NCI), 48 h.
On to `O=C1OC(O)[C@@H]2[C@H]1[C@H]1CC[C@@H]2O1` (stereo partly drawn), for which the GI50 was more than 58.2 µM and the TGI is more than 94 µM.

For the molecule `O=C1c2cc3c(cc2-c2c1c1ccc(F)cc1c(=O)n2CCCNCCO)OCO3`, the GI50 is 0.329 µM and the TGI is 1.77 µM.

The molecule `COC(=O)C1=C(C)NC(C)=C(C(=O)OCCCN2CCC(c3ccccc3)(c3ccccc3)CC2)C1c1cccc([N+](=O)[O-])c1` (stereo not drawn) displayed a TGI of 3.39 µM.

For `CCCCCCCCC/C=C1\CCC(CN2CCOCC2)C1=O` (stereo not drawn), the TGI worked out at 9.2 µM.

`N=Nc1c(OC(=O)Nc2cccc(Cl)c2)[nH]c2ccccc12` came in with a TGI of 28 µM.

As for `CC1(C)C2CCC(=O)C1CC2` (stereo not drawn), the TGI was more than 100 µM.

In the case of `Fc1cc2[nH]ncc2c2c3c(c(-c4cn[nH]c4)nc12)CCCC3`, the GI50 was 1.19 µM and the TGI was 3.88 µM.

On to `C=C1C(=O)O[C@H]2[C@H]1CC/C(COC(=O)c1c[nH]c3ccccc13)=C\CC[C@@]1(C)O[C@@H]21`, for which the GI50 is 0.367 µM and the TGI was found to be 1.41 µM.

For the molecule `C/C(=N\NC(=S)NC(CCC(=O)O)C(=O)O)c1ccccn1` (stereo not drawn), the TGI was more than 100 µM.

For `CCN1CCN(c2nc(C)cc(N(CCNc3ccnc4cc(Cl)ccc34)Cc3ccc4c(c3)OCO4)n2)CC1`, the GI50 was 1.79 µM and the TGI is 3.42 µM.

For `CCN(CC)c1ccc(-c2cc(-c3cc(OC)c(OC)c(OC)c3)nc(N3CCOCC3)c2C#N)cc1`, the GI50 is 4.78 µM and the TGI is more than 63.5 µM.

Regarding `C=C(Br)C(C)(Br)CCC(Br)C(C)(C)Cl` (stereo not drawn), the TGI stood at 33.3 µM.

For the molecule `O=C(CCc1nnc2sc(-c3ccc(Cl)cc3Cl)nn12)c1nc2ncccc2[nH]1`, the GI50 is 2.44 µM and the TGI is 5.65 µM.

In the case of `NS(=O)(=O)c1cc(Br)c(N=Nc2ccc(O)c3ncccc23)c(Br)c1`, the TGI was more than 100 µM.

Turning to `COc1ccc(-c2nnc(COc3ccc(C(=O)/C=C/c4ccco4)cc3)o2)cc1`, the GI50 was 2.33 µM and the TGI is 5.41 µM.

Consider `OCc1ccc(-c2ccc(-c3ccc(CO)s3)o2)s1`, for which the TGI was more than 91.9 µM.

For the molecule `Cc1ccccc1S(=O)(=O)OC1NS(=O)(=O)c2ccccc21` (stereo not drawn), the TGI was more than 100 µM.

In the case of `O=C(/C=C/c1ccncc1)c1cc(Cl)ccc1O`, the GI50 is 22.6 µM and the TGI was found to be 47.5 µM.

On to `Cc1cc(/C=C/c2ccc3cc(N(C)C)ccc3[n+]2C)c(C)n1-c1ccccc1`, for which the GI50 is 0.568 µM and the TGI was found to be 1.53 µM.

The test system of another assay is NCI-H522 lung. The assay can be described thus: growth of human tumour cells (NCI), 48 h.
For the molecule `O=C1OC(O)[C@@H]2[C@H]1[C@H]1CC[C@@H]2O1` (stereo partly drawn), the GI50 was 26.3 µM and the TGI was determined as 74.9 µM.

In the case of `O=C1c2cc3c(cc2-c2c1c1ccc(F)cc1c(=O)n2CCCNCCO)OCO3`, the GI50 is 0.014 µM and the TGI is 0.106 µM.

Molecule `COC(=O)C1=C(C)NC(C)=C(C(=O)OCCCN2CCC(c3ccccc3)(c3ccccc3)CC2)C1c1cccc([N+](=O)[O-])c1` (stereo not drawn) yielded a TGI of 4.72 µM.

Molecule `CCCCCCCCC/C=C1\CCC(CN2CCOCC2)C1=O` (stereo not drawn) had a TGI of 6.64 µM.

In turn, `N=Nc1c(OC(=O)Nc2cccc(Cl)c2)[nH]c2ccccc12` registered a TGI of 11.3 µM.

Take `CC1(C)C2CCC(=O)C1CC2` (stereo not drawn): the TGI was more than 100 µM.

Regarding `Fc1cc2[nH]ncc2c2c3c(c(-c4cn[nH]c4)nc12)CCCC3`, the GI50 is 0.829 µM and the TGI amounted to 6.12 µM.

With `C=C1C(=O)O[C@H]2[C@H]1CC/C(COC(=O)c1c[nH]c3ccccc13)=C\CC[C@@]1(C)O[C@@H]21`, the GI50 was 0.194 µM and the TGI is 0.412 µM.

Turning to `C/C(=N\NC(=S)NC(CCC(=O)O)C(=O)O)c1ccccn1` (stereo not drawn), the TGI is more than 100 µM.

Regarding `CCN1CCN(c2nc(C)cc(N(CCNc3ccnc4cc(Cl)ccc34)Cc3ccc4c(c3)OCO4)n2)CC1`, the GI50 is 1.95 µM and the TGI turned out to be 4.06 µM.
